Results: paper PMC4685510, “A Cell Biologist’s Field Guide to Aurora Kinase Inhibitors” (Frontiers in Oncology, 2015)

Key:
Assay in all cases: biochemical
Format in all cases: biochemical
[1] = biological target: T1, 363 human kinases (including Aurora A/B/C) (Homo sapiens, UniProt Q6P3R8); details: NEK5; for remaining activity at 0.1 µM: 100 nM; for remaining activity at 0.1 µM / remaining activity at 0.5 µM: read-out: % Enzyme Activity (relative to DMSO controls)
T1 sequence (Q6P3R8 1-708): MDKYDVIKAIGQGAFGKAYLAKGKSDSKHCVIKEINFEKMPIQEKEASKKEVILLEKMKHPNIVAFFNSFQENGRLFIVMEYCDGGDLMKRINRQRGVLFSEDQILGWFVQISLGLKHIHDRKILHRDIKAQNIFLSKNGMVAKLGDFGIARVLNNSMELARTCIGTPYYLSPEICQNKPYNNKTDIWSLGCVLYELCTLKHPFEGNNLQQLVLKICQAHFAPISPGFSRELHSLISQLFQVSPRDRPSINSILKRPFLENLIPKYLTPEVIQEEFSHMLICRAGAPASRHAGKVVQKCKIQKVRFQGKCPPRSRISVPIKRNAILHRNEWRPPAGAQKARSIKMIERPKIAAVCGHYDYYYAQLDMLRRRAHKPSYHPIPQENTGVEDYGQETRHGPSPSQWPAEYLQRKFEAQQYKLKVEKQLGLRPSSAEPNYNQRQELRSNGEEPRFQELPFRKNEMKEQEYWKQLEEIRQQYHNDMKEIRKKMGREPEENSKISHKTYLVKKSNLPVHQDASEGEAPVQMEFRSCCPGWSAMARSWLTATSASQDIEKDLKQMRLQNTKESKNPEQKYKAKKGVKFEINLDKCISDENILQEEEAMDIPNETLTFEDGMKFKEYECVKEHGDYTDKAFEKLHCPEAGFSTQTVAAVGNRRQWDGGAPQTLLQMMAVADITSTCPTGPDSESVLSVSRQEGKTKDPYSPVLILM
Description: (§1) However, the Aurora A/B selectivity ratios derived from our in vitro and in vivo data can be compared to prioritize inhibitors.

[2] = biological target: T2, 363 human kinases (including Aurora A/B/C) (Homo sapiens, UniProt O95382); details: MEKK6; for remaining activity at 0.1 µM: 100 nM; for remaining activity at 0.1 µM / remaining activity at 0.5 µM: read-out: % Enzyme Activity (relative to DMSO controls)
T2 sequence (O95382 1-1288): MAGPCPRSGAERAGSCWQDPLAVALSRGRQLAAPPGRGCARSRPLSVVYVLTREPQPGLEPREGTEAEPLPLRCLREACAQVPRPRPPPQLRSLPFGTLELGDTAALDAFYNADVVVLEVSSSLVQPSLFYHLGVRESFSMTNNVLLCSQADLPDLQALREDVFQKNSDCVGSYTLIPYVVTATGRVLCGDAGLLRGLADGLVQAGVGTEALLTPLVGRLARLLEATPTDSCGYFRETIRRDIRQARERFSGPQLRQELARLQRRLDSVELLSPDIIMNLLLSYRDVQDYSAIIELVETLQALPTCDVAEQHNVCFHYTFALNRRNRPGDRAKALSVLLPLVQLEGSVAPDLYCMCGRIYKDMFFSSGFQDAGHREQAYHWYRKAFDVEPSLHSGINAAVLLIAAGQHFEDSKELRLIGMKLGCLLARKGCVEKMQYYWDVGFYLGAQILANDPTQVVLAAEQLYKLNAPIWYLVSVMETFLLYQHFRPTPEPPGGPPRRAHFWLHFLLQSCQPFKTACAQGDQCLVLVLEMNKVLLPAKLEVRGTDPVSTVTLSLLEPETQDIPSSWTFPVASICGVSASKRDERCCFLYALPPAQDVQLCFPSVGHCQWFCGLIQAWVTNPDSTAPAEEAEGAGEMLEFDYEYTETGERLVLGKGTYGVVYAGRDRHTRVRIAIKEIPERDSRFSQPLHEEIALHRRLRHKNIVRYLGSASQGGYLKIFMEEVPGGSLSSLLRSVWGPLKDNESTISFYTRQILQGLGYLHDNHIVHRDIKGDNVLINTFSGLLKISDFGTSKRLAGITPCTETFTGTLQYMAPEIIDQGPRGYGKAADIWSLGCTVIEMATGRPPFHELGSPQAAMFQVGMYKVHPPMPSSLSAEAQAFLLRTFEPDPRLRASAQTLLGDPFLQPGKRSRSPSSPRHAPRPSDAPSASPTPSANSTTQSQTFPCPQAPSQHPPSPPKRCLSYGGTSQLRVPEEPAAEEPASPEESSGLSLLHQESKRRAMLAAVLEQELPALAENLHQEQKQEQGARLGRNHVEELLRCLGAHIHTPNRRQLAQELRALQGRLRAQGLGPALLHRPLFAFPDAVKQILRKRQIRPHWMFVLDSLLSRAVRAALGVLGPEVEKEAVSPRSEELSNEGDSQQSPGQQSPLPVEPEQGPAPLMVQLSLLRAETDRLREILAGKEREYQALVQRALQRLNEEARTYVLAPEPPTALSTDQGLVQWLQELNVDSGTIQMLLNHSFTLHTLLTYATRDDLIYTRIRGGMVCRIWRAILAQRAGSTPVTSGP
Description: as §1

[3] = biological target: 363 human kinases (including Aurora A/B/C) (Homo sapiens, UniProt Q9UM73); details: ALK, [ATP] 50 µM; for remaining activity at 0.1 µM: 100 nM; for remaining activity at 0.1 µM / remaining activity at 0.5 µM: read-out: % Enzyme Activity (relative to DMSO controls)
Description: as §1

[4] = biological target: 363 human kinases (including Aurora A/B/C) (Homo sapiens, UniProt P09769); details: FGR, [ATP] 50 µM; for remaining activity at 0.1 µM: 100 nM; for remaining activity at 0.1 µM / remaining activity at 0.5 µM: read-out: % Enzyme Activity (relative to DMSO controls)
Description: as §1

[5] = biological target: 363 human kinases (including Aurora A/B/C) (Homo sapiens, UniProt P53779); details: JNK3; for remaining activity at 0.1 µM: 100 nM; for remaining activity at 0.1 µM / remaining activity at 0.5 µM: read-out: % Enzyme Activity (relative to DMSO controls)
Description: as §1

[6] = biological target: T3, 363 human kinases (including Aurora A/B/C) (Homo sapiens, UniProt Q99986); details: VRK1; for remaining activity at 0.1 µM: 100 nM; for remaining activity at 0.1 µM / remaining activity at 0.5 µM: read-out: % Enzyme Activity (relative to DMSO controls)
T3 sequence (Q99986 1-396): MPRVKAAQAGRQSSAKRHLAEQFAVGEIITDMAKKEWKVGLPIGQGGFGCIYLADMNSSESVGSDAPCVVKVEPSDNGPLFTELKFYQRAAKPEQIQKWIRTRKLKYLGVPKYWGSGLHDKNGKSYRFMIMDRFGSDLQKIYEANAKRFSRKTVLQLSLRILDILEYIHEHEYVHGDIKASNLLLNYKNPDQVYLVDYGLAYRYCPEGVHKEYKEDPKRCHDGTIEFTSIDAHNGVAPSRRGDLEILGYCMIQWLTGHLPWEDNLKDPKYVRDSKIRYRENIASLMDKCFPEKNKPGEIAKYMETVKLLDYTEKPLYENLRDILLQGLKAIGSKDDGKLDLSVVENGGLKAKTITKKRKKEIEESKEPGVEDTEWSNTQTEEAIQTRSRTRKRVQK
Description: as §1

[7] = biological target: 363 human kinases (including Aurora A/B/C) (Homo sapiens, UniProt Q9H2X6); details: HIPK2; for remaining activity at 0.1 µM: 100 nM; for remaining activity at 0.1 µM / remaining activity at 0.5 µM: read-out: % Enzyme Activity (relative to DMSO controls)
Description: as §1

[8] = biological target: 363 human kinases (including Aurora A/B/C) (Homo sapiens, UniProt P07947); details: YES/YES1; for remaining activity at 0.1 µM: 100 nM; for remaining activity at 0.1 µM / remaining activity at 0.5 µM: read-out: % Enzyme Activity (relative to DMSO controls)
Chain of 363 human kinases (including Aurora A/B/C) (Homo sapiens, UniProt P07947) (P07947 whole entry): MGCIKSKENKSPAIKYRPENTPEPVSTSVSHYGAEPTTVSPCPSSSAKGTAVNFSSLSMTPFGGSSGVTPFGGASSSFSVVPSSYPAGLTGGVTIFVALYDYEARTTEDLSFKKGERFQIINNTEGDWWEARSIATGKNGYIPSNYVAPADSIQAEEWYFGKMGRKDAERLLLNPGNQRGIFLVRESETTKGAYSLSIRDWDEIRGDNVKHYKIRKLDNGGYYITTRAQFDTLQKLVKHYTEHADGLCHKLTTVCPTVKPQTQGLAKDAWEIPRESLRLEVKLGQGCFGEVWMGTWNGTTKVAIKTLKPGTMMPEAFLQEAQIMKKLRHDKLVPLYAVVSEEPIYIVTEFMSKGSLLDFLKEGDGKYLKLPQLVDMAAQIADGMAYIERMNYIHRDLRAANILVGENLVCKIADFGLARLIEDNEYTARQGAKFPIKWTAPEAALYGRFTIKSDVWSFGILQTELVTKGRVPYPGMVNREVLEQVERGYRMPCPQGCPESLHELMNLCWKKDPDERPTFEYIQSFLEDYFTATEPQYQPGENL
Description: as §1

Chain of 363 human kinases (including Aurora A/B/C) (Homo sapiens, UniProt Q9H2X6) (Q9H2X6 whole entry): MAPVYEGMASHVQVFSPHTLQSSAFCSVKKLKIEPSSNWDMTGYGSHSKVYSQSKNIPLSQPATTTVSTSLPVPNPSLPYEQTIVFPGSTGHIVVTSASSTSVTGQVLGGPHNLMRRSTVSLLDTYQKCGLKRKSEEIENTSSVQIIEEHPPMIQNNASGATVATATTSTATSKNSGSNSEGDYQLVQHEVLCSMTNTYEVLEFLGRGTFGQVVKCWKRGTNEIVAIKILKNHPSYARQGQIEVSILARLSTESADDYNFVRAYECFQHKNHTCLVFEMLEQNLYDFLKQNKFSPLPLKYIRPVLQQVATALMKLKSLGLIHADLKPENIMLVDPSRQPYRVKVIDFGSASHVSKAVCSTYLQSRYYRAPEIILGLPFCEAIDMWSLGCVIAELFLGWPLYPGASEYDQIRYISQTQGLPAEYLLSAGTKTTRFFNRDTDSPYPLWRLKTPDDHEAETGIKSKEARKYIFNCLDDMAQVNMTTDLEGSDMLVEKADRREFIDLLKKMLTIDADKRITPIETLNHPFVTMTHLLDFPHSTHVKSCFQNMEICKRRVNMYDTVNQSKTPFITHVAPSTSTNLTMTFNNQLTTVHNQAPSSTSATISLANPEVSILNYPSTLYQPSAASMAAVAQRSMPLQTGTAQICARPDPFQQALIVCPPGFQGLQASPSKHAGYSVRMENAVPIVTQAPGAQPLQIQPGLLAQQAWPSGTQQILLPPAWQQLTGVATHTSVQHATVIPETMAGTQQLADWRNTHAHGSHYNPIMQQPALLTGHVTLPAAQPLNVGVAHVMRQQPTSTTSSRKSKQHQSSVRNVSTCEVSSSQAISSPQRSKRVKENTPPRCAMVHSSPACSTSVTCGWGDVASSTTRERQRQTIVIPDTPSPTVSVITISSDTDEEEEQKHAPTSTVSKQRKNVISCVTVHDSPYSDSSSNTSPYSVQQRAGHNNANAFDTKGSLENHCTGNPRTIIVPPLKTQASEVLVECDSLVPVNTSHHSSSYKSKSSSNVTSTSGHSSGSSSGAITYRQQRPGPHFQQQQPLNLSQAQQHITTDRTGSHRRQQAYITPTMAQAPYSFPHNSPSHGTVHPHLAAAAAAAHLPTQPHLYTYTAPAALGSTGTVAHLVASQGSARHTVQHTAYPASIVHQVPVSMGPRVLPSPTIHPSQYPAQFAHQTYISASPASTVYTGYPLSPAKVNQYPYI
Chain of 363 human kinases (including Aurora A/B/C) (Homo sapiens, UniProt P09769) (P09769 whole entry): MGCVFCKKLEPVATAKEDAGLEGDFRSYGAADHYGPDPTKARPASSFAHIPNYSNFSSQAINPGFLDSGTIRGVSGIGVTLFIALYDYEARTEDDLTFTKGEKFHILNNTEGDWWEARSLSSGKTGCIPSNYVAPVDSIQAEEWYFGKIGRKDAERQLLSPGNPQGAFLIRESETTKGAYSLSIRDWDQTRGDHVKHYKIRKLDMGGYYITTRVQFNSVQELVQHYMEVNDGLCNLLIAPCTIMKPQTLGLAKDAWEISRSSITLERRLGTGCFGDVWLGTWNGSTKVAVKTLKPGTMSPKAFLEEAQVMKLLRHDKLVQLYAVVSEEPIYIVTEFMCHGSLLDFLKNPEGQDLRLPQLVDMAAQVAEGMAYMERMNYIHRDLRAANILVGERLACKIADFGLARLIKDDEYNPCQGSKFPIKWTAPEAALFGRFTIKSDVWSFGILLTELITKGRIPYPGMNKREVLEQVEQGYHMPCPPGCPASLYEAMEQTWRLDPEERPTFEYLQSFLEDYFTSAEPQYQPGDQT
Chain of 363 human kinases (including Aurora A/B/C) (Homo sapiens, UniProt Q9UM73) (Q9UM73 19-1620): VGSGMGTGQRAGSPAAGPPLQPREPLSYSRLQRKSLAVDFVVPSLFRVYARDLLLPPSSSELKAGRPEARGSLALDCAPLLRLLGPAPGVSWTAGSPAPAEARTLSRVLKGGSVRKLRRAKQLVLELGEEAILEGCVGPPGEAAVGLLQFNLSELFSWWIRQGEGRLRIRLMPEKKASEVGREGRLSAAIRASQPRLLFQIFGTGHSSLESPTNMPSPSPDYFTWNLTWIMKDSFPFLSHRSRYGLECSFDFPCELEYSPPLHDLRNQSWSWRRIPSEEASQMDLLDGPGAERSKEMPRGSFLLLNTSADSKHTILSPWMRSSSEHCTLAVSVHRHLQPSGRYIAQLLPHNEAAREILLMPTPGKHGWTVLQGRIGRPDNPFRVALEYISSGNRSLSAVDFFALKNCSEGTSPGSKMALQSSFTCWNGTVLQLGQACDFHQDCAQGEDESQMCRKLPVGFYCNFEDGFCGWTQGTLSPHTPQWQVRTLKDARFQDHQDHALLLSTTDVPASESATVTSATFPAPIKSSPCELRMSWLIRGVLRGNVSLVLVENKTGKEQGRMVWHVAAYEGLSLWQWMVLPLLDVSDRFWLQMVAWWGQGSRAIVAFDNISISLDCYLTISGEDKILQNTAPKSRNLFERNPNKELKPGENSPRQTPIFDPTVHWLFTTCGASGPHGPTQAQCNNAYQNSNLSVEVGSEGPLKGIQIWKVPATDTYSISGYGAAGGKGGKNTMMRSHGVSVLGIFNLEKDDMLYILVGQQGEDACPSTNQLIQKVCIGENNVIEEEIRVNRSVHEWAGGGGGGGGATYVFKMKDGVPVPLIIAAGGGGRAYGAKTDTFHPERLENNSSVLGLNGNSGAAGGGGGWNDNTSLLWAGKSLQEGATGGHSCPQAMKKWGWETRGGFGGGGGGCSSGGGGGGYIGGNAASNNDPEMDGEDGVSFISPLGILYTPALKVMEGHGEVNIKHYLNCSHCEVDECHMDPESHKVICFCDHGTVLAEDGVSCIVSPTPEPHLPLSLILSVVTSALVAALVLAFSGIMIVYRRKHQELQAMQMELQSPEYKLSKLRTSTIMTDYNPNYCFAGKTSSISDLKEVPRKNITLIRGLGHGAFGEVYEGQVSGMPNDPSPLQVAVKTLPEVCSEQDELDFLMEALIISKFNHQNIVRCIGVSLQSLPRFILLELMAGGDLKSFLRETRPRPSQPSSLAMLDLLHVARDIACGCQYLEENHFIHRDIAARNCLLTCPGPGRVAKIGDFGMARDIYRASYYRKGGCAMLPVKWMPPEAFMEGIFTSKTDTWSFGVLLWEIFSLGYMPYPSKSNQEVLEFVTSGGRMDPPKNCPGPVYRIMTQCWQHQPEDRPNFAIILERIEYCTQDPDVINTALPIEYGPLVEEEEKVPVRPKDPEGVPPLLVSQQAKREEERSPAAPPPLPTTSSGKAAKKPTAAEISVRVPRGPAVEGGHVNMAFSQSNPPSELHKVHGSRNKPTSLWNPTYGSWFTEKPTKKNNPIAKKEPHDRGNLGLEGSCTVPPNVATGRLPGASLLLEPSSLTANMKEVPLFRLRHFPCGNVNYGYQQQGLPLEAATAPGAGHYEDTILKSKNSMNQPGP
Chain of 363 human kinases (including Aurora A/B/C) (Homo sapiens, UniProt P53779) (P53779 whole entry): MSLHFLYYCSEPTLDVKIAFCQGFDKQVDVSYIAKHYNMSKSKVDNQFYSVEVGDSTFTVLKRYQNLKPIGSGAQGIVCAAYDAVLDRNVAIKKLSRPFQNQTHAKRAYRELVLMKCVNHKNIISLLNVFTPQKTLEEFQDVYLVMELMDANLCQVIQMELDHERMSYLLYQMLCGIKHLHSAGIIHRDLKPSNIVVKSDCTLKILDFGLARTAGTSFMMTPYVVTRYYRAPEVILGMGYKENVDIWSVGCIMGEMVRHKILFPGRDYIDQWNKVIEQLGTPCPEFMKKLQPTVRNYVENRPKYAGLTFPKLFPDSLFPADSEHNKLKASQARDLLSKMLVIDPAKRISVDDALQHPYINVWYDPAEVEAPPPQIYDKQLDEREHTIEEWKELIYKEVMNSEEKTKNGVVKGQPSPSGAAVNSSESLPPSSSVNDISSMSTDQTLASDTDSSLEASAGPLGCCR

| Structure (SMILES) | remaining activity at 0.1 µM [1] [%] | remaining activity at 0.1 µM [2] [%] | remaining activity at 0.1 µM [3] [%] | remaining activity at 0.1 µM [4] [%] | remaining activity at 0.1 µM [5] [%] | remaining activity at 0.1 µM [6] [%] | remaining activity at 0.1 µM [7] [%] | remaining activity at 0.1 µM [8] [%] | remaining activity at 0.5 µM ([1]; 500 nM) [%] | remaining activity at 0.5 µM ([2]; 500 nM) [%] | remaining activity at 0.5 µM ([3]; 500 nM) [%] | remaining activity at 0.5 µM ([4]; 500 nM) [%] | remaining activity at 0.5 µM ([5]; 500 nM) [%] | remaining activity at 0.5 µM ([6]; 500 nM) [%] | remaining activity at 0.5 µM ([7]; 500 nM) [%] | remaining activity at 0.5 µM ([8]; 500 nM) [%] | other results |
| --- | --- | --- | --- | --- | --- | --- | --- | --- | --- | --- | --- | --- | --- | --- | --- | --- | --- |
| CCn1cc(-c2ccnc3[nH]c(-c4cccc(CN(C)C)c4)cc23)c(-c2ccc(NC(=O)N(C)C)cc2)n1 [GSK1070916] | 59.1 | 94.5 | 98.4 | 97.8 | 94 | 89.3 | 104 | 69.3 | – | – | – | – | – | – | – | – | – |
| O=C(O)[C@]1(Cc2cccc(Nc3nccs3)n2)CC[C@@H](Oc2cccc(Cl)c2F)CC1 [MK-5108] | 153 | 99.6 | 67 | 22.9 | 96.1 | 86.9 | 89.2 | 31.3 | 104 | 97.4 | 30.9 | 6.36 | 98.7 | 94 | 50 | 9.25 | – |
| O=C(c1cccc(Cl)c1F)N1CCN(Cc2cccc(Nc3nccs3)n2)CC1 [MK-8745] | – | – | – | – | – | – | – | – | 130 | 87.7 | 81 | 36.3 | 78.8 | 97.3 | 106 | 34.6 | % Enzyme Activity (relative to DMSO controls) ([1]; 500 nM): 128.29%; % Enzyme Activity (relative to DMSO controls) ([2]; 500 nM): 83.68%; % Enzyme Activity (relative to DMSO controls) ([3]; 500 nM): 78.97%; % Enzyme Activity (relative to DMSO controls) ([4]; 500 nM): 35.97%; % Enzyme Activity (relative to DMSO controls) ([5]; 500 nM): 78.39%; % Enzyme Activity (relative to DMSO controls) ([6]; 500 nM): 94.39%; % Enzyme Activity (relative to DMSO controls) ([7]; 500 nM): 102.33%; % Enzyme Activity (relative to DMSO controls) ([8]; 500 nM): 33.63% |
